Laboratory results: ChEMBL document CHEMBL3259779, “Discovery of pyrazolopyridones as a novel class of noncovalent DprE1 inhibitor with potent anti-mycobacterial activity” (J Med Chem, 2014)
pIC50: −log10 of the molar value. In brackets after ≈: the same amount, converted by molar mass.

Columns and labels:
[1] = system: Mycobacterium tuberculosis; test: Antimycobacterial activity against wild type Mycobacterium tuberculosis H37Rv assessed as growth inhibition by resazurin assay; type: functional
[2] = system: Mycobacterium tuberculosis; test: Antimycobacterial activity against Mycobacterium tuberculosis H37Rv ATCC 27294 assessed as growth inhibition after 5 days by microdilution method; type: functional; settings: H37Rv ATCC 27294, 120 h
[3] = Inhibition of Mycobacterium smegmatis DprE1 expressed in Escherichia coli Rosetta cells using farnesyl-phosphoryl-beta-D-ribofuranose as substrate by fluorescence analysis; set-up: species or system Mycolicibacterium smegmatis
[4] = Inhibition of Mycobacterium smegmatis DprE1 C394G mutant expressed in Escherichia coli Rosetta cells using farnesyl-phosphoryl-beta-D-ribofuranose as substrate by fluorescence analysis; set-up: species or system Mycolicibacterium smegmatis
[5] = Inhibition of Mycobacterium smegmatis DprE1 Y321H mutant expressed in Escherichia coli Rosetta cells using farnesyl-phosphoryl-beta-D-ribofuranose as substrate by fluorescence analysis; set-up: species or system Mycolicibacterium smegmatis
[6] = system: Mycolicibacterium smegmatis; test: Ratio of IC50 for Mycobacterium smegmatis DprE1 Y321H mutant expressed in Escherichia coli Rosetta cells to IC50 for wild type Mycobacterium smegmatis DprE1 expressed in Escherichia coli Rosetta cells
[7] = system: Mycolicibacterium smegmatis; test: Ratio of IC50 for wild type Mycobacterium smegmatis DprE1 expressed in Escherichia coli Rosetta cells to IC50 for Mycobacterium smegmatis DprE1 C394G mutant expressed in Escherichia coli Rosetta cells
[8] = system: Mycobacterium tuberculosis; test: Antimycobacterial activity against Mycobacterium tuberculosis H37Rv ATCC 27294 assessed as reduction of colony forming units by microdilution method; type: functional
[9] = system: Mycobacterium tuberculosis; test: Antimycobacterial activity against Mycobacterium tuberculosis Beijing (E-47/94) assessed as growth inhibition after 2 to 3 weeks by turbidometry; type: functional
[10] = system: Mycobacterium tuberculosis; test: Antimycobacterial activity against Mycobacterium tuberculosis H37Rv ATCC 27294 assessed as growth inhibition after 2 to 3 weeks by turbidometry; type: functional
[11] = system: Mycobacterium tuberculosis; test: Antimycobacterial activity against Mycobacterium tuberculosis D-211 assessed as growth inhibition after 2 to 3 weeks by turbidometry; type: functional
[12] = Aqueous kinetic solubility of the compound in 0.1 M phosphate buffer at pH 7.4 by UV-MS analysis; type: physicochemical; settings: read-out: Kinetic_solubility
[13] = Octanol-water partition coefficient, log D of the compound by shake flask method; type: physicochemical
[14] = Fraction unbound in human plasma at 20 uM by equilibrium dialysis technique; type: ADME, cell-free
[15] = Selectivity index, ratio of IC50 human A549 cells to MIC for Mycobacterium tuberculosis; type: toxicity, cell-based; settings: read-out: Selectivity Index
[16] = system: Mycobacterium tuberculosis; test: Antimycobacterial activity against Mycobacterium tuberculosis H37Rv infected in human THP-1 cells assessed as log reduction in colony forming units at 16 uM incubated for 7 days measured after 21 to 28 days; type: functional
[17] = system: Mycolicibacterium smegmatis; test: Ratio of IC50 for Mycobacterium smegmatis DprE1 C394G mutant expressed in Escherichia coli Rosetta cells to IC50 for wild type Mycobacterium smegmatis DprE1 expressed in Escherichia coli Rosetta cells
[18] = system: Mycobacterium tuberculosis; test: Antimycobacterial activity against Mycobacterium tuberculosis H37Rv assessed as bacterial killing by two-fold serial dilution method; type: functional, organism-based; settings: TDE = time-dependent effect
[19] = system: Mycobacterium tuberculosis; test: Antimycobacterial activity against Mycobacterium tuberculosis H37Rv assessed as log reduction in colony forming units on day 10 by two-fold serial dilution method; type: functional

Row | SMILES | MIC [1] [µM] | MIC [2] [µM] | pIC50 [3] | MBC [8] [µM] | also measured
1 | CCOC(=O)NC(=O)c1ccsc1NC(=O)c1nc2ccccc2s1 | 0.5 (≈ 0.188 µg/mL) | – | – | – | –
2 | Cc1nn(-c2ccccc2)c2[nH]c(=O)c(CNCc3ccccc3)cc12 | – | > 100 | 5.85 | – | –
3 | O=c1[nH]c2c(cc1CNCc1cc(C(F)(F)F)ccc1F)c(C1CC1)nn2-c1ccccc1 | 0.002 (≈ 0.000913 µg/mL) | 1.6 (≈ 0.73 µg/mL) | 7.40 | 4.4 (≈ 2.01 µg/mL) | pIC50 [4]: 8.00; pIC50 [5]: 5.35; Ratio IC50 [6]: 107; Ratio IC50 [7]: 4
4 | CN[C@@H]1[C@H](O[C@H]2[C@H](O[C@H]3[C@H](O)[C@@H](O)[C@H](N=C(N)N)[C@@H](O)[C@@H]3N=C(N)N)O[C@@H](C)[C@]2(O)C=O)O[C@@H](CO)[C@H](O)[C@H]1O [STREPTOMYCIN] | – | – | – | – | MIC [9]: 0.3 µM (≈ 0.174 µg/mL); MIC [10]: 0.3 µM (≈ 0.174 µg/mL); MIC [11]: 0.3 µM (≈ 0.174 µg/mL)
5 | O=c1[nH]c2c(cc1CNCc1cccc(C(F)(F)F)n1)c(C1CC1)nn2-c1ccccc1 | > 0.1 | 3.1 (≈ 1.36 µg/mL) | 7.30 | 5.6 (≈ 2.46 µg/mL) | pIC50 [4]: 7.70; pIC50 [5]: 5.21; Ratio IC50 [6]: 40; solubility kinetic [12]: 153 µM (≈ 67.2 µg/mL); logD [13]: 3.2; fraction unbound at 20 µM [14]: 0.011; selectivity ratio [15]: 20; Ratio IC50 [7]: 6
6 | Cc1ccc(C(F)(F)F)nc1CNCc1cc2c(C3CC3)nn(-c3ccccc3)c2[nH]c1=O | – | 1.5 (≈ 0.68 µg/mL) | 8.00 | 1.6 (≈ 0.726 µg/mL) | solubility kinetic [12]: 1 µM (≈ 0.453 µg/mL); logD [13]: 3.4; fraction unbound at 20 µM [14]: < 0.01; selectivity ratio [15]: 10
7 | C[C@H]1COC2(CCN(c3nc(=O)c4cc(C(F)(F)F)cc([N+](=O)[O-])c4s3)CC2)O1 [BTZ-043] | 0.003 (≈ 0.00129 µg/mL) | – | 8.30 | – | –
8 | COc1ncnc(Cn2cc(C(=O)NCCF)c3ncccc32)c1C | 1.51 (≈ 0.52 µg/mL) | – | 8.30 | – | –
9 | Cc1ccc(CNCc2cc3c(C)nn(-c4ccccc4)c3[nH]c2=O)cc1C | – | 25 (≈ 9.31 µg/mL) | 5.92 | 50 (≈ 18.6 µg/mL) | –
10 | C[C@@H](NC(=O)c1cc([N+](=O)[O-])cc(C(F)(F)F)c1)c1ccccc1 | 0.943 (≈ 0.319 µg/mL) | – | – | – | –
11 | Cc1nn(-c2ccccc2)c2[nH]c(=O)c(CNCc3cccc(C#N)c3)cc12 | – | > 100 | 5.59 | – | –
12 | Cc1nn(-c2ccccn2)c2[nH]c(=O)c(CNCc3cccc(C(F)(F)F)c3)cc12 | – | > 100 | – | – | –
13 | Cc1ccc(-n2nc(C)c3cc(CNCc4cccc(C(F)(F)F)c4)c(=O)[nH]c32)cc1 | – | 12.5 (≈ 5.33 µg/mL) | 6.22 | 12.5 (≈ 5.33 µg/mL) | –
14 | Cc1nn(-c2ccccc2)c2[nH]c(=O)c(CN3CCc4ccc(C(F)(F)F)cc4C3)cc12 | – | > 100 | 5.21 | – | –
15 | Cc1nn(-c2ccccc2)c2[nH]c(=O)c(CN(C)Cc3cccc(C(F)(F)F)c3)cc12 | – | 1 (≈ 0.426 µg/mL) | 7.22 | – | –
16 | Cc1nn(-c2ccccc2)c2c1cc(CNCc1cccc(C(F)(F)F)c1)c(=O)n2C | – | > 100 | < 5.00 | – | –

Row | SMILES | MIC [1] [µM] | MIC [2] [µM] | pIC50 [3] | MBC [8] [µM] | also measured
17 | O=c1[nH]c2c(cc1CNCc1cccc(C(F)(F)F)c1)c(C1CC1)nn2-c1ccccc1 | > 0.1 | 1.5 (≈ 0.658 µg/mL) | 7.40 | 2.8 (≈ 1.23 µg/mL) | MIC [9]: 1.6 µM (≈ 0.702 µg/mL); MIC [10]: 1.6 µM (≈ 0.702 µg/mL); MIC [11]: 1.6 µM (≈ 0.702 µg/mL); solubility kinetic [12]: 1 µM (≈ 0.438 µg/mL); logD [13]: 3.9; fraction unbound at 20 µM [14]: 0.01; selectivity ratio [15]: 10
18 | NNC(=O)c1ccncc1 [ISONIAZID] | 5 (≈ 0.686 µg/mL) | – | – | – | MIC [9]: 0.2 µM (≈ 0.0274 µg/mL); MIC [10]: 0.2 µM (≈ 0.0274 µg/mL); MIC [11]: 0.2 µM (≈ 0.0274 µg/mL)
19 | CC[C@@H](CO)NCCN[C@@H](CC)CO [ETHAMBUTOL] | – | – | – | – | MIC [9]: 2 µM (≈ 0.409 µg/mL); MIC [10]: 2 µM (≈ 0.409 µg/mL); MIC [11]: 2 µM (≈ 0.409 µg/mL)
20 | O=c1[nH]c2c(cc1CNCc1cccc(C(F)(F)F)c1F)c(C1CC1)nn2-c1ccccc1 | 0.003 (≈ 0.00137 µg/mL) | 1.6 (≈ 0.73 µg/mL) | > 8.30 | 4.1 (≈ 1.87 µg/mL) | pIC50 [4]: 7.22; pIC50 [5]: 5.09; Ratio IC50 [6]: 38; Ratio IC50 [7]: 4
21 | Cc1nn(C)c2[nH]c(=O)c(CNCc3cccc(C(F)(F)F)c3)cc12 | – | > 100 | < 4.00 | – | –
22 | Cc1ccc(C(F)(F)F)cc1CNCc1cc2c(C(C)C)nn(-c3ccccc3)c2[nH]c1=O | – | 0.4 (≈ 0.182 µg/mL) | > 8.30 | < 0.5 | solubility kinetic [12]: 10 µM (≈ 4.54 µg/mL); logD [13]: > 4.4; fraction unbound at 20 µM [14]: < 0.01; selectivity ratio [15]: 35
23 | Cc1cccc(CNCc2cc3c(C)nn(-c4ccccc4)c3[nH]c2=O)c1 | – | 100 (≈ 35.8 µg/mL) | 5.55 | 100 (≈ 35.8 µg/mL) | –
24 | Cc1ccc(C(F)(F)F)cc1CNCc1cc2c(C3CC3)nn(-c3ccccc3)c2[nH]c1=O | 0.002 (≈ 0.000905 µg/mL) | 0.1 (≈ 0.0452 µg/mL) | 8.00 | < 0.5 | log10cfu [16]: 1; pIC50 [5]: 5.13; Ratio IC50 [17]: 1; Ratio IC50 [6]: 740; solubility kinetic [12]: < 1 µM; logD [13]: 3.9; fraction unbound at 20 µM [14]: < 0.01; selectivity ratio [15]: > 250; Activity [18]: tde; log10cfu [19]: >4
25 | CC1COc2c(N3CCN(C)CC3)c(F)cc3c(=O)c(C(=O)O)cn1c23 (stereo unspecified) [OFLOXACIN] | – | – | – | – | MIC [9]: 0.7 µM (≈ 0.253 µg/mL); MIC [10]: 0.7 µM (≈ 0.253 µg/mL); MIC [11]: 0.7 µM (≈ 0.253 µg/mL)
26 | Cc1ccc(C(F)(F)F)cc1CNCc1cc2c(C)nn(-c3ccccc3)c2[nH]c1=O | – | 0.8 (≈ 0.341 µg/mL) | 8.15 | 1.2 (≈ 0.512 µg/mL) | pIC50 [4]: 8.00; pIC50 [5]: 5.82; Ratio IC50 [17]: 1; Ratio IC50 [6]: 150; solubility kinetic [12]: 55 µM (≈ 23.5 µg/mL); logD [13]: 3.7; fraction unbound at 20 µM [14]: < 0.01; selectivity ratio [15]: 20
27 | COc1nc2c(cc1CNCc1cccc(C(F)(F)F)c1)c(C)nn2-c1ccccc1 | – | > 100 | < 5.00 | – | –
28 | Cc1nn(-c2ccccc2)c2[nH]c(=O)c(CNCc3cccc(C(F)(F)F)c3)cc12 | > 0.1 | 3.1 (≈ 1.28 µg/mL) | 6.40 | 8.5 (≈ 3.51 µg/mL) | MIC [9]: 3.1 µM (≈ 1.28 µg/mL); MIC [10]: 3.1 µM (≈ 1.28 µg/mL); MIC [11]: 3.1 µM (≈ 1.28 µg/mL)
29 | CO[C@H]1/C=C/O[C@@]2(C)Oc3c(C)c(O)c4c(O)c(c(/C=N/N5CCN(C)CC5)c(O)c4c3C2=O)NC(=O)/C(C)=C\C=C\[C@H](C)[C@H](O)[C@@H](C)[C@@H](O)[C@@H](C)[C@H](OC(C)=O)[C@@H]1C [RIFAMPIN] | – | – | – | – | MIC [9]: 0.02 µM (≈ 0.0165 µg/mL); MIC [10]: 0.02 µM (≈ 0.0165 µg/mL); MIC [11]: 0.02 µM (≈ 0.0165 µg/mL)
30 | Cc1nn(-c2ccccc2)c2[nH]c(=O)c(C(=O)NCc3cccc(C(F)(F)F)c3)cc12 | – | > 100 | 6.00 | – | –
31 | Cc1nn(-c2ccccc2)c2[nH]c(=O)c(CNCc3cccc(F)c3)cc12 | – | 75 (≈ 27.2 µg/mL) | 5.70 | 100 (≈ 36.2 µg/mL) | –
